# Measured values reported in patent US20250250265A1, “BENZOTHIAZOLE-PHENYLSULFONYL-PIPERIDINE ANALOGS AS ACTIVATORS OF NACYLPHOSPHATIDYLETHANOLAMINE HYDROLYZING PHOSPHOLIPASE D” (priority 2022, published 2025).
# “Also recorded” adds a separate entry of the source.
# Legend:
# [1] = molecular target: T1, recombinant human NAPE-PLD (Homo sapiens, UniProt Q6IQ20); experiment: Concentration response with recombinant human NAPE-PLD, PED-A1 as substrate; type: biochemical
# T1 construct: The expression plasmid including the full-length human NAPEPLD gene with a C-terminal hexahistidine tag; hexahistidine (His6) (C)
# Description: FIG. 18A-B show VU534 and VU533 activate human NAPE-PLD. […] Mean±SEM, n=3. Non-linear regression with variable slope (four parameter) was used to calculate EC50 and Emax.
# Initial stocks of potential NAPE-PLD modulator compounds were purchased from Life Chemicals and provided by the Vanderbilt HTS screening facility. Additional compounds were synthesized by the Vanderbilt Chemical Synthesis core. LEI-401, [^2H4]PEA and [^2H4]OEA were purchased from Cayman Chemicals. N-palmitoyl-PE, 1,2-dioleoyl-PE and 1,2-dihexanoyl-PE were purchased from Avanti Polar Lipids. PED-A1 was purchased from Invitrogen. Flame-NAPE was synthesized as previously described. See Zarrow et al., J. Lipid Res. 63(1): 100156 (2022). [^2H4]N-palmitoyl-PE was synthesized using [^2H4] palmitic acid (Cambridge Isotope Laboratories) and 1,2-dioleoyl-PE and N-oleoyl-PE was synthesized using 1,2-dihexanoyl-PE and oleoyl chloride (Millipore Sigma). Recombinant mouse NAPE-PLD with a C-terminal hexahistidine tag was expressed in E. coli and purified using cobalt affinity beads as previously described. See Aggarwal et al., J. Biol. Chem. 295(21): 7289-7300 (2020). The expression plasmid including the full-length human NAPEPLD gene with a C-terminal hexahistidine tag inserted in a pET plasmid was purchased from VectorBuilder, and the protein expressed and purified in an identical manner to recombinant mouse NAPE-PLD. The sEH inhibitors TPPU (N-[1-(1-Oxopropyl)-4-piperidinyl]-N′-[4-(trifluoromethoxy)phenyl]urea) and AUDA (12-[[(tricyclo[3.3.1.13,7]dec-1-ylamino)carbonyl]amino]-dodecanoic acid) were purchased from Cayman Chemical and Sigma Chemicals, respectively.
# In vitro fluorescence NAPE-PLD activity assays using recombinant NAPE-PLD and either PED-A1 or flame-NAPE as fluorogenic substrate were performed as previously described except with small modifications as noted below. See Aggarwal et al., J. Biol. Chem. 295(21): 7289-7300 (2020); Zarrow et al., J. Lipid Res. 63(1): 100156 (2022).
# Concentration response curve (CRC) experiments used the same assay conditions as the HTS assay, except that graded concentrations of each test compound were used, with total amount of vehicle (DMSO) kept constant. CRC experiments with purified recombinant mouse NAPE-PLD were performed on two separate days, with values from each day normalized to vehicle only controls on same plate, and then all normalized values from both days averaged together. CRC experiments with human NAPE-PLD represent value from only a single day, due to limited amounts of this recombinant enzyme.
# [2] = molecular target: T2, NAPE-PLD activity of HepG2 cells (Homo sapiens, UniProt Q6IQ20); experiment: Cell-based NAPE-PLD activity in HepG2 cells (flame-NAPE)
# T2 construct: endogenous in cells; host or cells: HepG2
# Procedure: In vitro models of the hepatic steatosis of non-alcoholic fatty liver disease (NAFLD) are well-established, with the primary method being incubation of primary human hepatocytes or hepatocyte cell lines such as HepG2, HuH7, HepaRG, with oleic acid and palmitic acid for 24 to 48 h, then measuring the resulting steatosis, lipid peroxidation, apoptosis, and inflammatory gene expression. Using flame-NAPE to measure NAPE-PLD activity in the human hepatoma HepG2 cell line, the experimental data confirmed that VU534 activated NAPE-PLD in human cells (AC50 940 nM; max % bA 155%). Bithionol (10 μM) reduced HepG2 flame-NAPE hydrolysis by >67%.
# NAPE-PLD activity was measured in cells as previously described, except that FluoroBrite DMEM (Gibco A1896701) was used as media. See Zarrow et al., J. Lipid Res. 63(1): 100156 (2022). For RAW264.7 assays, PED-A1 (3.6 μM final) was used as the substrate with 10 μM orlistat added to inhibit PLA1 activity, while for HepG2 cells, flame-NAPE was used (with no orlistat added).
# [3] = molecular target: T3, Fatty Acid Amide Hydrolase (FAAH) (Homo sapiens, UniProt O00519); experiment: FAAH activity assay (Cayman Chemicals); type: biochemical
# T3 construct: purchased Cayman Chemicals
# T3 sequence (O00519 1-579): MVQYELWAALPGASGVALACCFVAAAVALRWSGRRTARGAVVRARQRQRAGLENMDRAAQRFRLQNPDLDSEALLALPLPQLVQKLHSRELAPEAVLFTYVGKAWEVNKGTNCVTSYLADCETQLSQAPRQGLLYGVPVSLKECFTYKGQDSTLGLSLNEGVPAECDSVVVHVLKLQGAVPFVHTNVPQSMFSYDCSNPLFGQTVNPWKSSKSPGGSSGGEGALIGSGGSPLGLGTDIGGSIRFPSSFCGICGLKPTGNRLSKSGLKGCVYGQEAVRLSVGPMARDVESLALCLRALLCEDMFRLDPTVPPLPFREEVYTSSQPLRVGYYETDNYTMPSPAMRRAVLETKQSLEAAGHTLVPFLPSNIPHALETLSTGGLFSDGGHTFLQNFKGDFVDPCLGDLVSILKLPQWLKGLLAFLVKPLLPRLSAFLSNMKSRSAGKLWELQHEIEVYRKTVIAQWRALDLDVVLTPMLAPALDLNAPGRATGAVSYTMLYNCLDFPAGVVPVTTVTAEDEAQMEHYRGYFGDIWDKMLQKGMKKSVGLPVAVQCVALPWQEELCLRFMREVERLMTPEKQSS
# Procedure: Concentration response curves were plotted for VU534 for the enzymes fatty acid amide hydrolase (FAAH) and soluble epoxide hydrolase (sEH).
# The fluorescence interference assay was performed using the same method as the HTS assay, but with BODIPY-FL C5 (Thermo Fisher Scientific) used in place of PED-A1. sEH and FAAH activity assays were performed according to the manufacturer's specifications (Cayman Chemicals).
# [4] = test system: RAW264.7 mouse macrophages; experiment: Cytotoxicity (MTT) in RAW264.7 macrophages; type: cell-based
# Procedure: (§1) Cytotoxicity was measured using MTT as previously described except that the studies used 96-well plates with 100 μL of 0.3 mg/mL MTT solution was added after 24 h of treatment and then replaced after 3 h with 0.1 M HCl in isopropanol. See Aggarwal et al., J. Biol. Chem. 295(21): 7289-7300 (2020). Viability was expressed as percent absorbance at 560 nm relative to vehicle controls.
# [5] = test system: HepG2 human hepatocytoma cells; experiment: Cytotoxicity (MTT) in HepG2 cells; type: cell-based
# Procedure: as §1
# T2 sequence (Q6IQ20 whole entry): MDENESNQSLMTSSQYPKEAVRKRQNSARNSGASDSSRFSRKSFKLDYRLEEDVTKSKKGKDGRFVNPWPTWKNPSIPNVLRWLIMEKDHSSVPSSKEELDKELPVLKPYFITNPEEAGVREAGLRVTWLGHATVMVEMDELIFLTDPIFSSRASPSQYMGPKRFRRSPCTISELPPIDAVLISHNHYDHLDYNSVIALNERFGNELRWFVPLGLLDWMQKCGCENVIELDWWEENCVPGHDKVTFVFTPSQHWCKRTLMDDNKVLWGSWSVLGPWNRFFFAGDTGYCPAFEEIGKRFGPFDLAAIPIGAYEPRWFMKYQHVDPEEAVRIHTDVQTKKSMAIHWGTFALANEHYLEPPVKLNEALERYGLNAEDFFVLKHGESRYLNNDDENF
# T1 sequence (Q6IQ20 whole entry): as above
smiles,measurement,setting,value
"Cc1cc(C)c2sc(NC(=O)C3CCN(S(=O)(=O)c4ccc(F)cc4)CC3)nc2c1 [VU534, N-(5,7-Dimethylbenzo[d]thiazol-2-yl)-1-((4-fluorophenyl)sulfonyl)piperidine-4-carboxamide]","Emax, recombinant human NAPE-PLD","[1]; FIG. 18A, PED-A1",1.8 fold
same,effect on activity of recombinant human NAPE-PLD,[1]; graded concentrations (FIG. 18A),concentration-dependent increases
same,"Emax, NAPE-PLD activity of HepG2 cells","[2]; FIG. 18B, flame-NAPE",1.6 fold
same,AC50,"[2]; HepG2, flame-NAPE (Example 7)",940 nM
same,max % bA in HepG2 cells,"[2]; HepG2, flame-NAPE (Example 7)",155%
same,Emax,"[2]; HepG2 cells, % maximal induced activity (Table 2, Example 7)",145%
same,EC50,"[2]; HepG2 cells, flame-NAPE (Table 2, Example 7)",2400 nM
same,In-cell NAPE-PLD activity in HepG2 (10 μM) with PED-A1 or flame-NAPE as substrate,"[2]; Table 3, 10 μM",211%
same,effect on NAPE-PLD activity in HepG2 cells,"[2]; graded concentrations, flame-NAPE",increased NAPE-PLD activity; also recorded: enhances NAPE-PLD activity
same,inhibition at 33 µM,"[3]; 33 μM compound, compared to vehicle (0%)",< 15%
same,Remaining FAAH Activity (33 μM),"[3]; Table 3, 33 μM",86%
same,inhibition of FAAH activity,[3]; graded concentrations up to 33 μM,no inhibition of FAAH; also recorded: only weak inhibition; also recorded: does not inhibit
same,33 μM Mϕ % Viability,"[4]; Table 2, Mϕ, 33 μM compound",>85%
same,% viability RAW 264.7 (33 μM),"[4]; Table 3, 33 μM",89%
same,cytotoxicity in RAW264.7 cells,[4]; up to / at 30 μM,minimal cytotoxicity
same,% HepG2 viability (33 μM),"[5]; Table 3, 33 μM",91%
same,cytotoxicity in HepG2 cells,[5]; up to / at 30 μM,minimal cytotoxicity
